From ChEMBL document CHEMBL3232868, “Programmable DNA-binding small molecules” (Bioorg Med Chem, 2013)
pIC50, pKd: −log10 of the molar value. Each block holds one molecule with its values, some of them ahead of it.

Tests used:
[1] = Binding affinity to 5'-WGWWCW-3' DNA (unknown origin)
Homo sapiens = organism: Homo sapiens; test: Binding affinity to DNA HRE binding site (unknown origin) assessed as inhibition of HIF-1alpha/ARNT heterodimer binding
[2] = Binding affinity to DNA HRE binding site (unknown origin) by DNase 1 footprint titrations method
[3] = Binding affinity to rat TGF-beta1 promoter AP1 binding site by gel mobility shift and SPR method
[4] = test system: Human papillomavirus type 16; test: Antiviral activity against HPV16 assessed as inhibition of viral replication; type: functional, organism-based; settings: Human papillomavirus 16
[5] = Binding affinity to 5'-TGTTAT-3' DNA (unknown origin)

Structure (SMILES): CN(CCCNC(=O)c1cc(NC(=O)c2cc(NC(=O)c3nc(NC(=O)c4cc(NC(=O)[C@H](N)CCNC(=O)c5nc(NC(=O)c6cc(NC(=O)c7cc(NC(=O)c8sccc8Cl)cn7C)cn6C)cn5C)cn4C)cn3C)cn2C)cn1C)CCCNC(=S)Nc1ccc(-c2c3ccc(=O)cc-3oc3cc(O)ccc23)c(C(=O)O)c1
INH (Homo sapiens): 0.25 nM
Ka [2]: 6.3 ×10⁹ /M

Structure (SMILES): Cn1cc(NC(=O)c2cc(NC(=O)c3cc(NC=O)cn3C)cn2C)cc1C(=O)NCCC(=N)N [STALLIMYCIN]
pIC50 [4]: 4.48

Structure (SMILES): CN(CCCNC(=O)c1cccc(C(=O)O)c1)CCCNC(=O)c1cc(NC(=O)c2cc(NC(=O)c3cc(NC(=O)c4nc(NC(=O)C[C@@H](CNC(=O)c5cc(NC(=O)c6cc(NC(=O)c7cc(NC(=O)c8nccn8C)cn7C)cn6C)cn5C)NC(=O)c5ccc(-c6ccccc6)cc5)cn4C)cn3C)cn2C)cn1C
pIC50 [1]: 7.89

Further lines, results first:

pIC50 [1]: 7.68
Structure (SMILES): CN(CCCNC(=O)c1cccc(C(=O)O)c1)CCCNC(=O)c1cc(NC(=O)c2cc(NC(=O)c3cc(NC(=O)c4nc(NC(=O)C[C@@H](CNC(=O)c5cc(NC(=O)c6cc(NC(=O)c7cc(NC(=O)c8nccn8C)cn7C)cn6C)cn5C)NC(=O)c5ccccn5)cn4C)cn3C)cn2C)cn1C

pIC50 [1]: 8.00
Structure (SMILES): CN(CCCNC(=O)c1cccc(C(=O)O)c1)CCCNC(=O)c1cc(NC(=O)c2cc(NC(=O)c3cc(NC(=O)c4nc(NC(=O)C[C@@H](CNC(=O)c5cc(NC(=O)c6cc(NC(=O)c7cc(NC(=O)c8nccn8C)cn7C)cn6C)cn5C)NC(=O)c5ccc([N+](=O)[O-])cc5)cn4C)cn3C)cn2C)cn1C

pKd [3]: 8.84
Structure (SMILES): CC(=O)Nc1cc(C(=O)Nc2cc(C(=O)NCCC(=O)Nc3cc(C(=O)Nc4cn(C)c(C(=O)Nc5cc(C(=O)NCCCC(=O)Nc6cc(C(=O)Nc7cc(C(=O)Nc8cc(C(=O)NCCC(=O)Nc9cn(C)c(C(=O)Nc%10cc(C(=O)NCCC(=O)NCCCN(C)C)n(C)c%10)n9)n(C)c8)n(C)c7)n(C)c6)n(C)c5)n4)n(C)c3)n(C)c2)n(C)c1

pKd [5]: 8.96
Structure (SMILES): CN(CCCN)CCCNC(=O)CCNC(=O)c1cc(NC(=O)c2cc(NC(=O)c3cc(NC(=O)c4cc(NC(=O)CCCNC(=O)c5cc(NC(=O)c6cc(NC(=O)c7cc(NC(=O)c8nccn8C)cn7C)cn6C)cn5C)cn4C)cn3C)cn2C)cn1C
